assay: in vitro; settings: human, hela cells, % viability

Point of comparison: `CC1CN(CC(=O)NC(C)(C)c2ccccc2)CC(C)N1` (stereo not drawn) [CBK051693], viability at 28.5 h, 10 µM 83.8%. Against it:
- Cc1cc(NS(=O)(=O)c2ccc(F)cc2)n(C)n1 [CBK051021] — higher, 108%
- Cc1ccnc(NS(=O)(=O)c2ccc(NS(=O)(=O)c3ccc(F)cc3)cc2)n1 [CBK051024] — higher, 102%
- Cc1c(S(=O)(=O)Nc2ccc(C(=O)c3ccccc3)cc2)cnn1-c1ccccc1 [CBK051034] — higher, 96.5%
- O=S(=O)(c1ccccc1)c1cncc(N2CCNCC2)n1 [CBK051078C] — higher, 89.3%
- O=C1CN(S(=O)(=O)c2ccc(F)cc2Cl)CCN1 [CBK051081] — higher, 109%
- O=C(NCC1COc2ccccc2O1)NC(=O)C1CCNCC1 (stereo not drawn) [CBK051096] — higher, 91.6%
- CN1CCC(C(=O)NC(=O)NCCOc2cccc3ccccc23)CC1 [CBK051100] — higher, 90.1%
- O=S(=O)(c1ccc(Br)cc1)N1CCCCC1CO (stereo not drawn) [CBK051127] — higher, 116%
- COC(=O)C1CCCCN1S(=O)(=O)c1cccs1 (stereo not drawn) [CBK051135] — higher, 109%
- CCOC(=O)C1CCN(S(=O)(=O)c2cccs2)CC1 [CBK051137] — higher, 92.4%
- Cc1ccc(S(=O)(=O)c2cncc(N3CCNCC3)n2)cc1 [CBK051166C] — higher, 101%
- O=C(O)CCC(=O)N1CCCc2ccccc21 [CBK051167] — higher, 92.6%
- CN1CCN(S(=O)(=O)c2ccc(C(C)(C)C)cc2)CC1 [CBK051237] — higher, 106%
- CCOC(=O)C1CCN(S(=O)(=O)c2cccc3cccnc23)CC1 [CBK051242] — higher, 92.5%
- COC(=O)C1CCCCN1S(=O)(=O)c1cccc2cccnc12 (stereo not drawn) [CBK051244] — lower, 82.2%
- COc1ccc([C@@]23CC[C@@H](NC(=O)Nc4ccc(OC)c(C(F)(F)F)c4)C[C@@H]2N(C)CC3)cc1OC [CBK051268T] — higher, 107%
- COc1ccc([C@@]23CC[C@@H](NC(=O)Nc4cccc(-c5nn[nH]n5)c4)C[C@@H]2N(C)CC3)cc1OC [CBK051273T] — higher, 87.8%
- COc1ccc(CO)cc1OCc1ccccc1 [CBK051334] — higher, 110%
- O=S(=O)(c1cc(Cl)sc1Cl)N1CCCCC1CO (stereo not drawn) [CBK051422] — higher, 87.2%
- CC(C)(C)c1ccc([S+]([O-])c2cncc(N3CCNCC3)n2)cc1 (stereo not drawn) [CBK051434C] — higher, 88.4%
- Cc1cc(F)c(S(N)(=O)=O)cc1NC(=O)c1ccc(C(F)(F)F)cc1 [CBK051448] — higher, 104%
- COCC1=C(C(=O)OC)[C@H](c2ccc(F)c(F)c2)N(C(=O)NCCCN2CCC(c3cccc(NC(C)=O)c3)CC2)C(=O)N1 [CBK051451C] — higher, 93.5%
- c1ccc(CCN2CCC(c3nc(-c4ccccc4)no3)CC2)cc1 [CBK051454] — higher, 89.8%
- COc1cccc(-c2noc(C3CCN(CCc4ccccc4)CC3)n2)c1 [CBK051455] — higher, 99.7%
- Fc1ccc(-c2noc(C3CCN(CCc4ccccc4)CC3)n2)cc1 [CBK051457] — higher, 91.3%
- COc1cccc(-c2noc(C3CCN(CCc4ccc(F)cc4)CC3)n2)c1 [CBK051461] — higher, 121%
- Fc1ccc(CCN2CCC(c3nc(-c4cccnc4)no3)CC2)cc1 [CBK051464] — higher, 118%
- CC(=O)c1ccc(S(=O)(=O)N2CCCCC2CNC(=O)c2ccco2)cc1 (stereo not drawn) [CBK051472] — higher, 103%
- Cc1cc(F)c(S(N)(=O)=O)cc1NC(=O)c1cccc(Br)c1 [CBK051488] — higher, 90.9%
- O=C(c1nn2c(C(F)(F)F)cc(-c3ccccc3)nc2c1Br)N1CCCCC1 [CBK051497] — higher, 97.6%
- CCCNC(=O)c1nn2c(C(F)(F)F)cc(-c3ccccc3)nc2c1Cl [CBK051499] — higher, 110%
- COc1cccc(OC)c1OCCN1CCC(CNC(=O)Nc2cccc(C(F)(F)F)c2)CC1 [CBK051512T] — higher, 96.7%
- COc1cc(NC(=O)NCC2CCN(CCOc3c(OC)cccc3OC)CC2)cc(OC)c1 [CBK051514] — higher, 89.1%
- COc1cccc(OC)c1OCCN1CCC(NC(=O)Nc2ccc(Cl)cn2)CC1 [CBK051515] — higher, 94.4%
- N#Cc1cccc(S(=O)(=O)N2CCCCC2CO)c1 (stereo not drawn) [CBK051524] — higher, 100%
- CNC(=O)C1CCN(S(=O)(=O)c2ccc(C(C)(C)C)cc2)CC1 [CBK051544] — higher, 90.3%
- CC(C)(C)c1ccc(C(=O)N2CCN(C(=O)CN3CCOCC3)C2)cc1 [CBK051554C] — higher, 112%
- O=C(CN1CCOCC1)N1CCN(C(=O)c2ccc(C(F)(F)F)cc2)C1 [CBK051555C] — higher, 92.1%
- C[C@@H]1CN(C)CCN1c1nccnc1OCCOc1cccnc1OCCCCCN(C)C [CBK051566] — higher, 103%
- COc1ccc(C)cc1S(=O)(=O)n1ccc2c(OC3CCCN(C)C3)nccc21 (stereo not drawn) [CBK051582C] — higher, 85.3%
- COc1ccc([C@@]23CC[C@@H](NC(=O)Nc4ncc(Cl)s4)C[C@@H]2N(C)CC3)cc1OC [CBK051620T] — higher, 96.1%
- COc1ccc(C)cc1S(=O)(=O)Nc1ccc(O[C@@H]2CCNC2)c2ccccc12 [CBK051622C] — higher, 104%
- CS(=O)(=O)NCC1(c2ccccc2)CCN(S(=O)(=O)c2ccc(N3CCOCC3)nc2)CC1 [CBK051634] — higher, 90%
- c1cc2[nH]ccc2c(N2CCNCC2)n1 [CBK051673C] — higher, 90.7%
- COc1ccc([C@@]23CC[C@@H](NC(=O)Nc4ccc(F)c(F)c4)C[C@@H]2N(C(=O)CN)CC3)cc1OC [CBK051679] — higher, 111%
- Cc1nc(NCCCn2ccnc2)c2ccccc2n1 [CBK051987] — higher, 95.1%
- CCOC(=O)CSc1nc2ccccc2c(=O)n1Cc1ccccc1 [CBK054124] — higher, 95.4%
- Cn1c(SCC(=O)c2ccccc2)nc2ccccc2c1=O [CBK055260] — higher, 87.6%
- COc1ccc([C@@]23CCCN(C(=O)Nc4ccc(C)c(F)c4)C[C@@H]2N(C)CC3)cc1OC [CBK056680T] — higher, 110%
- Cc1c(F)cccc1CNC1CCC(NC(=O)OC(C)(C)C)CC1 (stereo not drawn) [CBK056691] — higher, 85%
- CC(C)(C)OC(=O)NCCNCc1ccccc1Br [CBK056693] — higher, 92.1%
- CC(C)(C)OC(=O)NCCNCc1ccccc1C(F)(F)F [CBK056695] — lower, 80%
- COc1ccc(F)c(CNCCNC(=O)OC(C)(C)C)c1 [CBK056699] — higher, 93.9%
- Cc1c(F)cccc1CNCCNC(=O)OC(C)(C)C [CBK056700] — higher, 95.7%
- CC(C)(C)OC(=O)NCc1ccc(CNCc2ccccc2Br)cc1 [CBK056701] — higher, 96.6%
- CC(C)(C)OC(=O)NCc1ccc(CNCc2ccc(-c3ccccc3)cc2)cc1 [CBK056706] — higher, 96.8%
- Cc1c(F)cccc1CNCc1ccc(CNC(=O)OC(C)(C)C)cc1 [CBK056708] — higher, 103%
- Cc1cccc(CNCC2CCN(C(=O)OC(C)(C)C)CC2)n1 [CBK056713] — higher, 104%
- CC(C)(C)OC(=O)N1CCC(CNCc2cc(F)cc(F)c2)CC1 [CBK056715] — higher, 119%
- Cc1c(F)cccc1CNCC1CCN(C(=O)OC(C)(C)C)CC1 [CBK056717] — higher, 85.7%
- CC(C)(C)OC(=O)N1CCC(CNCc2c[nH]c(-c3ccccc3)n2)CC1 [CBK056718] — higher, 94.3%
- COc1ccc([C@@]23CC[C@@H](NS(=O)(=O)c4cccc5cccnc45)C[C@@H]2N(C)CC3)cc1OC [CBK056849T] — lower, 80.8%
- O=C(OCCC1SC(NC2CC3C=CC2C3)=NC1=O)c1cc(C(F)(F)F)cc(C(F)(F)F)c1 (stereo not drawn) [CBK056857T] — higher, 100%
- O=C(Nc1cnccn1)c1ccc(Cl)cc1Cl [CBK056922] — higher, 85.5%
- CC(C)(C)OC(=O)NCCNC(=O)Nc1ccccc1C(F)(F)F [CBK056940] — higher, 98.6%
- CCCCOc1ccc(-c2ccc(C#N)cc2)cc1 [CBK056958] — higher, 93%
- COc1ccc2c(c1)CCCN2C(=O)c1sc2ccccc2c1Cl [CBK056960] — higher, 90.2%
- O=C(NCCc1ccncc1)c1cccs1 [CBK056969] — higher, 107%
- CN(C)C(=O)C(C)(C)Oc1cc(C(F)(F)F)n(C)n1 [CBK056980] — higher, 94.2%
- O=S(=O)(c1ccccc1)N1CCCC1c1cccs1 (stereo not drawn) [CBK057002] — higher, 110%
- CSc1ccccc1NC(=O)c1cc(Cl)sc1Cl [CBK057008] — higher, 99.2%
- CC(C)(C)SCCNS(=O)(=O)c1ccc(Cl)c(Cl)c1 [CBK057015] — higher, 92.1%
- COC(=O)c1sccc1NC(=O)/C=C/c1ccccc1 [CBK057041] — higher, 115%
- N#Cc1c(F)cccc1NCc1cccnc1 [CBK057053] — higher, 116%
- CCOC(=O)N1CCN(S(=O)(=O)c2coc(C)c2C(=O)OC)CC1 [CBK057079] — higher, 94.7%
- COC(=O)c1cc(OC)c(OC)cc1NC(=O)C1CCC1C(=O)O (stereo not drawn) [CBK057084] — lower, 82.5%
- OC(CNCc1cccs1)c1ccccc1 (stereo not drawn) [CBK057092] — higher, 90.8%
- Cc1ccc(OCC(O)CN2CCC(C(N)=O)CC2)cc1C (stereo not drawn) [CBK057100] — higher, 105%
- COC(=O)c1c(C)oc(C)c1S(=O)(=O)Nc1ccc(C(C)C)cc1 [CBK057115] — higher, 88%
- O=C(/C=C/c1ccsc1)Nc1ccc(F)cc1 [CBK057139] — higher, 93.9%
- O=C(O)C1CCC1C(=O)N1CCN(c2ccc(C(F)(F)F)cn2)CC1 (stereo not drawn) [CBK057147] — higher, 93.7%
- O=S(=O)(c1cccs1)N1CCC2(CC1)OCCO2 [CBK057295] — higher, 95.1%
- Cc1cc(C(=O)N(CCC#N)Cc2cccs2)no1 [CBK057316] — higher, 112%
- O=C(O)CCC(=O)N1CCN(c2ncccn2)CC1 [CBK057422] — higher, 114%
- O=C(O)CCC(=O)Nc1cc(C(F)(F)F)ccc1N1CCCC1 [CBK057434] — higher, 94.2%
- CCCCNCCn1cnc2c(N)ncnc21 [CBK057447] — higher, 116%
- COC(=O)C(CCSC)NC(=O)c1ccc(C(F)(F)F)cc1 (stereo not drawn) [CBK057452] — higher, 91.9%
- O=C(O)C1CNC(=O)N1C(=O)OCc1ccccc1 (stereo not drawn) [CBK057462] — higher, 98.8%
- Cc1ccc(NC2C=CS(=O)(=O)C2)cc1 (stereo not drawn) [CBK057487] — higher, 89.5%
